# Measurements reported in patent US11304926B2, “Application of transient receptor potential cation channel TRPV3 in developing drug for preventing or treating psoriasis” (CHINA PHARMACEUTICAL UNIVERSITY, priority 2019, dated 2022).
# “Also recorded” adds a separate entry of the source.
# Key:
# [1] = test system: mouse psoriasis model induced by 5% IMQ; experiment: Content of related inflammatory factors (ELISA) in skin of mouse psoriasis model; assay type: in vivo
# Method: Contents of IL17, IL23, CXCL15 and myeloperoxidase (MPO) in the skin of the mouse were detected by enzyme-linked immunosorbent assay (ELISA), and ELISA kits for various inflammatory factors were all purchased from ELISA Biotechnology Co., Ltd. Specific operation steps were briefly described as follows according to instructions: 50 mg of fresh skin sample was added with 450 μL of PBS (pH=7.2 to 7.4), homogenized on ice, and centrifuged at 5000 rpm for 15 minutes, and then a supernatant was used for detection. A standard substance was diluted according to a proportion, and a blank well, a standard substance well and a well for sample to be detected were set respectively. 50 μL of standard substance was accurately loaded to an ELISA coating plate, and 40 μL of sample diluent was added into the well for sample to be detected firstly, and then added with 10 μL of sample to be detected (a final dilution concentration of the sample was 5 times). The sample was loaded to bottoms of the wells in the ELISA plate without touching walls of the wells to the greatest extent, and then shaken and mixed gently. After sealing the plate with a microplate sealer, the mixture was incubated at 37° C. for 30 minutes. A 30-times concentrated cleaning solution was diluted 30 times with distilled water for later use. The microplate sealer was carefully removed, the liquid was discarded, and the remaining was subjected to spin-drying, and the cleaning solution was fully filled into each well, stood for 30 seconds and then discarded. The steps were repeated for 5 times, and then the mixture was patted dry. 50 μL of ELISA reagent was added into each well, except for the blank well. After sealing the plate with a microplate sealer, the mixture was incubated at 37° C. for 30 minutes. The microplate sealer was carefully removed, the liquid was discarded, and the remaining was subjected to spin-drying, and the cleaning solution was fully filled into each well, stood for 30 seconds and then discarded. […] An absorbance (OD value) of each well was measured sequentially at a wavelength of 450 nm. […]
# mTRPV3 = target: T1, mTRPV3 (Mus musculus, UniProt Q8K424); experiment: Intracellular calcium fluorescence (Fluo-4, FLIPR) in HEK-293 cells stably transfecting mTRPV3, 2-APB induced; assay type: cell-based; conditions: Scutellarein 10 μM, 2-APB 300 μM, mTRPV3-HEK-293
# T1 construct: expressed in transfected cells
# T1 sequence (Q8K424 1-791): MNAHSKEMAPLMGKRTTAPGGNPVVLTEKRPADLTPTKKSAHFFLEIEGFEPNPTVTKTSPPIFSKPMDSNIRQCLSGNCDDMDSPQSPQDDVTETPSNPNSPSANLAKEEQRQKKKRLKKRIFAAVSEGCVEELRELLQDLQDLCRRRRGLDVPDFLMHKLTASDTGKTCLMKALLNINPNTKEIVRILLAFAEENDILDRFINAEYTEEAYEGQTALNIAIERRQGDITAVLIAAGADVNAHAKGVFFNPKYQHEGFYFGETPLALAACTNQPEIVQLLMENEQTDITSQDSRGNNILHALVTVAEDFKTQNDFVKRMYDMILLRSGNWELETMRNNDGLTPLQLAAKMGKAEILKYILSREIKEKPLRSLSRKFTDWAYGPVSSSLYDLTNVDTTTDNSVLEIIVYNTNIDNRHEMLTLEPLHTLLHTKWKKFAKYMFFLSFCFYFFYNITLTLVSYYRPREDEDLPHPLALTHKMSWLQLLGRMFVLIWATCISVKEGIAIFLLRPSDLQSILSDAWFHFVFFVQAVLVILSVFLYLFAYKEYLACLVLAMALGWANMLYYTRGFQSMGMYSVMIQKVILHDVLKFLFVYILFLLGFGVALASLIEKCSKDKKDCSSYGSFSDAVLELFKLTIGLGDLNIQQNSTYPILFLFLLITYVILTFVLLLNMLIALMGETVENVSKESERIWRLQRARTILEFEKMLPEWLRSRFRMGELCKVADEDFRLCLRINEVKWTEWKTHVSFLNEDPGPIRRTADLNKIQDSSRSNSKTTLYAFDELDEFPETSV
# Method: mTRPV3 plasmids were donated by Professor Jie Zheng from UC Davis. Transfection steps were as follows: HEK-293 cells with a confluence ranging from 70% to 80% and a good growth state were seeded into T-60 small dishes the day before transfection, each small dish contained 4×10^5 cells, and the cells were cultured without penicillin/streptomycin overnight at 37° C. in 5% CO2. 10 μL of plasmids (plasmid concentration was 1000 ng/μL) were diluted with 250 μl of DMEM (article number: 12800017, Gibco), and meanwhile, 10 μL of Lipofectamine 2000 (article number: 11668027, Gibco) was diluted into 250 μL of DMEM. […] Monoclone cells were selected by a limiting dilution method: the screened cells were digested and counted, and seeded into a 96-well plate in sequence at densities of 10^4 cells/well, 10^3 cells/well, 10^2 cells/well, 10 cells/well, and 1 cell/well. Under a fluorescence microscope, wells of separate cells with green fluorescence were labeled, and cells amplified from the wells were HEK-293 cells stably transfecting the mTRPV3. […] The cell plate was placed in a preheated FLIPR® ^TETRA (Molecular Devices, Sunnyvale, Calif., USA) at 30° C., and excited at a wavelength of 488 nm, and fluorescence signals were continuously recorded at a sampling frequency of 1 second at a wavelength range of 515 nm to 575 nm. […]
# [2] = ELISA, vs modeling mouse applied with IMQ
smiles,measurement,setting,value
O=c1cc(-c2ccc(O)cc2)oc2cc(O)c(O)c(O)c12 [Scutellarein],secretion of the related inflammatory factors,[1]; 5% IMQ model,obviously reduce
same,content of CXCL15 in the skin,[1]; [2],significantly lower
same,content of MPO in the skin,[1]; [2],significantly lower
same,inhibition of increase of intracellular calcium concentration (calcium influx) induced by 2-APB,mTRPV3,could inhibit increase of the intracellular calcium concentration; also recorded: obvious inhibitory effect
